The source of these data is ChEMBL document CHEMBL1148862, “Evaluation of the anti-hepatitis C virus effect of novel potent, selective, and orally bioavailable JNK and VEGFR kinase inhibitors” (Bioorg Med Chem Lett, 2007).

One may read the pEC50 as −log10 of the EC50, conventionally taken in molar units. A lower pEC50 goes with a high EC50. As usually defined, the CC50 is the concentration that lowers cell viability or growth by half.

Series [1] deals with Hepatitis C virus. Briefly: Antiviral activity against HCV in Huh7-Rep cells by luciferase assay. Format: functional, organism-based, Hepacivirus hominis.
The nature of series [2]: Cytotoxicity against Huh7 cells by luciferase assay. It counts as cell-based, Huh-7. As to conditions: human.
Series [3] can be described thus: Cytotoxicity against MT4 cells by luciferase assay. Format: cell-based. As to conditions: human.

The structures appear in SMILES notation. pEC50: −log10 of the molar value.

In turn, `Fc1ccc(Cl)cc1-c1nc(Nc2ccncc2)c2nccnc2n1` gave a pEC50 in series [1] of 6.05. Besides, the CC50 in series [2] and in series [3] was more than 25 µM throughout.

`COc1cnc(-c2cc(Cl)ccc2F)nc1Nc1ccncc1C(=O)NCCNCCO` had a pEC50 in series [1] of 6.07. Also, the CC50 in series [2] and in series [3] was more than 32 µM in each case.

`Oc1nc(-c2cc(Cl)ccc2F)nc2nccnc12` gave a pEC50 in series [1] of less than 4.30. The CC50 in series [2] and in series [3] was more than 25 µM each time.

On to `CCCCN(c1ccncc1)c1nc(-c2cc(Br)ccc2F)nc2nccnc12`, for which the pEC50 in series [1] was 5.66. In addition, the CC50 in series [2] and in series [3] was more than 32 µM each time.

In the case of `COc1cnc(-c2cc(Cl)ccc2F)nc1Nc1ccncc1C(=O)NCCN`, in series [1], the pEC50 is 5.44. In addition, the CC50 in series [2] turned out to be 5.5 µM; in series [3], 4.7 µM.

`COc1cnc(-c2cc(Cl)ccc2F)nc1Nc1ccncc1C(=O)NC1CCN(C(=O)OC(C)(C)C)CC1` showed a negative logarithm of the EC50 (pEC50) in series [1] of 6.00. For the same compound, the CC50 in series [2] stood at 4 µM; in series [3], 3.9 µM.

On to `Fc1ccc(Br)cc1-c1nc(Nc2ccccc2)c2nccnc2n1`, for which the pEC50 in series [1] was 5.40. The CC50 in series [2] and in series [3] was more than 32 µM throughout.

In turn, `Cc1cc(Nc2nc(-c3cc(Br)ccc3F)nc3nccnc23)ccn1` gave a pEC50 in series [1] of 5.44. The CC50 in series [2] was determined as 12.9 µM; in series [3], 13.2 µM.

For the compound `Fc1ccc(Br)cc1-c1nc(N(CCc2ccccc2)c2ccncc2)c2nccnc2n1`, the pEC50 in series [1] is 5.71. The CC50 in series [2] amounted to 22.2 µM; in series [3], 11 µM.

In turn, `COc1cnc(-c2cc(Cl)ccc2F)nc1Nc1ccncc1C(=O)NC[C@H]1CCCO1` had a pEC50 in series [1] of 5.59. Besides, the CC50 in series [2] and in series [3] was more than 32 µM each time.

With `COc1cnc(-c2cc(Cl)ccc2F)nc1Nc1ccncc1C(=O)NCCCN1CCCCC1C` (configuration not stated), the pEC50 in series [1] was 6.26. The CC50 worked out at 3.6 µM in series [2] and 3.3 µM in series [3].

For `FC(F)(F)c1cccc(-c2nc(Nc3ccncc3)c3nccnc3n2)c1`, the pEC50 in series [1] was 5.72. In addition, the CC50 in series [2] and in series [3] was more than 25 µM each time.

In the case of `Cc1cnccc1Nc1nc(-c2cc(Cl)ccc2F)nc2nccnc12`, the pEC50 in series [1] was 5.70. Further, the CC50 in series [2] and in series [3] was more than 32 µM each time.

Turning to `Fc1ccccc1-c1nc(Nc2ccncc2)c2nccnc2n1`, in series [1], the pEC50 was 5.00. Also, the CC50 in series [2] and in series [3] was more than 25 µM each time.

Take `Clc1cccc(-c2nc(Nc3ccncc3)c3nccnc3n2)c1`: in series [1], the negative logarithm of the EC50 (pEC50) was 5.78. Besides, the CC50 in series [2] and in series [3] was more than 32 µM each time.

In series [1], `Cc1ccccc1Nc1nc(-c2cc(Br)ccc2F)nc2nccnc12` showed a negative-log EC50 (pEC50) of 5.19. Besides, the CC50 in series [2] and in series [3] was more than 32 µM each time.

In the case of `COc1cnc(-c2cc(Cl)ccc2F)nc1Nc1ccncc1C(=O)NCC(F)(F)F`, in series [1], the pEC50 is 5.92. Besides, the CC50 in series [2] and in series [3] was more than 32 µM each time.

Consider `COc1cnc(-c2cc(Cl)ccc2F)nc1Nc1ccncc1C(=O)NCCCn1ccnc1`, for which, in series [1], the negative-log EC50 (pEC50) was 6.04. For the same compound, the CC50 turned out to be 15.3 µM in series [2] and 8.1 µM in series [3].

Regarding `COc1cnc(-c2cc(Cl)ccc2F)nc1Nc1ccncc1C(=O)NCCNCC(C)O` (configuration not stated), in series [1], the pEC50 is 5.02. The CC50 in series [2] and in series [3] was more than 32 µM throughout.

In turn, `COc1cnc(-c2cc(Cl)ccc2F)nc1Nc1ccncc1C(=O)NCCCN1CCOCC1` gave a pEC50 in series [1] of 5.60. Also, the results for the CC50 in series [2] and in series [3] were 17.1 µM and 15.4 µM, respectively.

As for `CCc1cnccc1Nc1nc(-c2cc(Cl)ccc2F)nc2nccnc12`, the pEC50 in series [1] was 6.15. Also, the CC50 in series [2] and in series [3] was more than 32 µM each time.

For the compound `CN(c1ccccc1)c1nc(-c2cc(Br)ccc2F)nc2nccnc12`, the negative-log EC50 (pEC50) in series [1] was 5.70. The CC50 in series [2] and in series [3] was more than 32 µM in each case.

The compound `COc1cnc(-c2cc(Cl)ccc2F)nc1Nc1ccncc1C(=O)NCCCN1CCCC1=O` gave a pEC50 in series [1] of 7.08. Further, the CC50 in series [2] was found to be 17.7 µM; in series [3], 5.8 µM.

Regarding `Cc1cnccc1Nc1nc(-c2cc(Br)ccc2F)nc2nccnc12`, the pEC50 in series [1] is 6.10. The CC50 in series [2] and in series [3] was more than 32 µM throughout.

`CCOC(=O)CNC(=O)c1cnccc1Nc1nc(-c2cc(Cl)ccc2F)ncc1OC`: the pEC50 in series [1] was 5.34. The CC50 in series [2] and in series [3] was more than 32 µM in each case.

Compound `Fc1ccc(Br)cc1-c1nc(Nc2ccncc2)c2nccnc2n1` gave a pEC50 in series [1] of 6.46. Besides, the CC50 in series [2] and in series [3] was more than 32 µM throughout.

Regarding `COc1cnc(-c2cc(Cl)ccc2F)nc1Nc1ccncc1C(=O)NCCCN(C)C`, the pEC50 in series [1] was 6.23. Also, the CC50 in series [2] was 15.8 µM; in series [3] it was 5 µM.

In series [1], `CN(c1ccncc1)c1nc(-c2cc(Br)ccc2F)nc2nccnc12` gave a pEC50 of 5.44. Further, the CC50 in series [2] and in series [3] was more than 32 µM each time.

In series [1], `Fc1ccc(Br)cc1-c1nc(N(Cc2ccccc2)c2ccncc2)c2nccnc2n1` showed a pEC50 of 6.00. For the same compound, the CC50 in series [2] and in series [3] was more than 32 µM throughout.
